Results published in patent US20170152245A1 (National Taiwan University, priority 2015, published 2017).
Where two headings read alike, the source gives them in different places.

Key:
[1] = system: human platelet-rich plasma; assay: U46619-induced platelet aggregation in human platelet-rich plasma; type: cell-based; details: U46619 1 μM
Experimental: (§1) Human platelet suspension (PS) was prepared according to the method described previously. Briefly, blood sample, freshly obtained from healthy volunteers who had taken no medications during the preceding 2 weeks, was treated with acid citrate/dextrose (ACD) in a volume ratio of 9:1. After centrifugation at 120 g, 25° C. for 9 min, platelet-rich plasma was transferred into another plastic tube and incubated with heparin (6.4 U/ml) as well as prostaglandin E1 (1 μM). Platelets were spun down by centrifugation at 500 g, 25° C. for 8 min and subsequently washed two times with Tyrode solution (NaH2PO4 0.4 mM; NaCl 136.9 mM; KCl […]; NaHCO3 11.9 mM; CaCl2 2 mM; MgCl2 2.1 mM; glucose 11.1 mM; BSA 3.5 mg/ml; pH 7.35-7.4). The washed platelets were finally suspended in Tyrode's solution and the platelet count was adjusted to 3.75×10^8 platelets/ml. For platelet-rich plasma (PRP) preparation, whole blood was anticoagulated with 1/10 vol of sodium citrate (3.8%, w/v) and centrifuged at 150 g, 25° C. for 9 min.
(§2) Platelet aggregation was measured turbidimetrically with a Lumi-aggregometer (Payton Scientific) at 37° C. under stirring condition (900 rpm). […] The extent of platelet aggregation was determined by recording the increase of light transmission relative to that of control (maximal aggregation, as 100%) for 6 min after the addition of inducer. […]

[2] = system: human platelet-rich plasma; assay: Arachidonic acid-induced platelet aggregation in human platelet-rich plasma; type: cell-based; details: arachidonic acid 200 μM
Experimental: as §1, §2

mouse PRP = assay: Ex vivo mouse PRP aggregation caused by U46619; type: in vivo, mice; details: 10 μg/g i.v.; U46619 0.125 μM; compared to nstpbp5185
Experimental: Mice were i.v. injected with vehicle, nstpbp5185 (10 μg/g) or Ctkf6f2 (10 μg/g). The blood samples were collected within 10 mins by intracardiac puncture for PRP, and U46619 (0.125 μM) was added. Platelet aggregation was measured turbidimetrically using platelet aggregometer. Shown are representative of three independent experiments.
Furthermore, the platelet aggregation was evaluated on ex vivo mouse model. The mouse was i.v. administered with compound 5185 (10 μg/g) or Ctkf6f2 (10 μg/g), compared to the vehicle-treated control. The blood was collected and evaluated for its response to U46619 (0.125 μM) on the aggregometer (FIG. 10).

[3] = system: human platelet suspension; assay: ADP-induced platelet aggregation in human platelet suspension; type: cell-based
Experimental: as §1
Platelet aggregation was measured turbidimetrically with a Lumi-aggregometer (Payton Scientific) at 37° C. under stirring condition (900 rpm). Platelet suspensions were prewarmed to 37° C. for 2 min in a silicone-treated glass cuvette. Nstpbp5185 was added 3 min before the addition of platelet-aggregation inducers. The extent of platelet aggregation was determined by recording the increase of light transmission relative to that of control (maximal aggregation, as 100%) for 6 min after the addition of inducer. The final volume and platelet count for measuring platelet aggregation were 500 μl and 3×10^8/ml, respectively.

[4] = system: human platelet suspension; assay: Thrombin-induced platelet aggregation in human platelet suspension; type: cell-based; details: data not shown
Experimental: as §1, §2

TP receptor = target: T1, TP receptor (Homo sapiens, UniProt P21731); assay: [3H]SQ-29548 binding to TP receptor of recombinant HEK-293 cells
T1 construct: expressed in transfected cells; host or cells: HEK-293
T1 sequence (P21731 1-343): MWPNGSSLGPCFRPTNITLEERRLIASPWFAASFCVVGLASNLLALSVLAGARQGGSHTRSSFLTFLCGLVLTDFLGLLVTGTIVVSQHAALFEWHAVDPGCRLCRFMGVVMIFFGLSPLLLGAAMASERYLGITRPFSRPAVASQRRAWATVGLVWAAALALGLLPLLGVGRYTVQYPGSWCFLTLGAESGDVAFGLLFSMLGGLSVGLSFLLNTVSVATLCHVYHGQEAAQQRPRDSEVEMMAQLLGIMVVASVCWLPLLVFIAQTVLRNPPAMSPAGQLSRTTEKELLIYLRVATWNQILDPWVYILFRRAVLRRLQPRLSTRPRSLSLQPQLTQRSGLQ
Experimental: Freshly prepared samples of this suspension were incubated with [^3H]SQ-29548 (5 nM final concentration), for 60 min at 25° C. The displacement was initiated by addition of nstpbp5185 dissolved in the same buffer. After incubation (30 min, 25° C.), ice-cold Tris-HCl buffer (10 mM, pH 7.4) was added, the sample was rapidly filtered through a glass fiber filter, and the tube rinsed twice with ice-cold buffer. The filters were then placed in plastic scintillation vials containing an emulsion-type scintillation mixture, and the radioactivity was counted.

mice carotid artery = assay: FeCl3-induced thrombus formation in mice carotid artery; type: in vivo; details: intravenous administration
Experimental: FIG. 14 The antithrombotic activity of nstpbp5185 in FeCl3-induced thrombi formation in mice carotid artery. (A) Mice were intravenously administered with Heparin (10 or 100 U kg^−1), Aspirin (40 or 80 μg g^−1), or different doses of nstpbp5185 (B). After 5 min, FeCl3 injury was induced by a filter paper saturated with ferric chloride solution (10%). After removal of the paper, carotid blood flow (ml min^−1) was monitored continuously until thromboembolism formation or for 60 min. (C) Mice were orally administered with different doses of Aspirin and nstpbp5185 (D). Both drugs were suspended in 1% CMC. Blood flow monitoring were recorded used analyzed Labchart software (AD instruments). Data are presented as the mean±SEM (n≧3). **P<0.01 and ***P<0.001 as compared with the vehicle control (DMSO).
Mice were intravenously or orally administered with different doses of nstpbp5185.

platelet suspension = assay: U46619-stimulated platelet protein tyrosine phosphorylation; type: cell-based; details: 2.5 μM; U46619 1 μM
Experimental: FIG. 19 Effects of nstpbp5185 on U46619-stimulated protein tyrosine phosphorylation in platelet suspension. Platelets were incubated with nstpbp5185 (2.5 μM) or solvent control for 3 min and then stimulated with U46619 (1 μM) for the times indicated (second, s). Then platelets were lysed in SDS buffer and the lysates separated by SDS-PAGE (7.5%-15% acrylamide gradient) under reducing conditions. After electrophoresis, the proteins were transferred to PVDF membranes, and were incubated with several antiphosphotyrosine mAb before detection by using a peroxidase-linked second Ab and detected by chemiluminescence. Data are representative of three separate experiments.
Given the thromboxane receptor-blocking effect of nstpbp5185, the effect of nstpbp5185 on U46619-stimulated signal transduction in platelets was investigated. Stimulation of thromboxane receptors results in phosphorylation of PLCβ2 and activates downstream signaling pathway PKCα, PI3K, Syk, extracellular signal-regulated kinase (ERK) and focal adhesion kinase. The effect of nstpbp5185 on levels of protein tyrosine phosphorylation was examined in platelet cell lysates in different time course. […] In the presence of nstpbp5185 (2.5 μM), the overall pattern of protein tyrosine phosphorylation of signaling molecules during platelet activation was suppressed, including phospholipase Cβ2 (PLCβ2), FAK, PKCα, PI3-kinase, Syk and ERK.

SMILES | IC50 [1] [nM] | IC50 [2] [nM] | inhibition of platelet aggregation of PRP induced by U46619, ex vivo (mouse PRP) | effect on platelet aggregation caused by ADP ([3]; data not shown) | % inhibition ADF ([3]; human platelet suspension, preliminary, compound concentration not given) [%] | effect on platelet aggregation caused by thrombin [4] | Thromboxane receptor (TP receptor; Table III arrows) | IC50 (TP receptor; [3H]SQ-29548 5 nM, read-out: IC50 in displacing 3H-SQ-29548 from TP receptor expressed on HEK-293 cells) [nM] | IC50 (TP receptor; read-out: thromboxane A2 receptor blockade IC50) [nM] | ED50 FeCl3-induced thrombus formation (mice carotid artery) | protein tyrosine phosphorylation of signaling molecules (PLCβ2, FAK, PKCα, PI3-kinase, Syk, ERK) (platelet suspension)
Cc1ccc(-c2nc3ccc(F)cc3n2Cc2cccc(F)c2)o1 [Ctkf6f2, 6-fluoro-1-(3-fluorobenzyl)-2-(5-methyl-2-furyl)benzimidazole] | 3270 ± 1010 | 8870 ± 2520 | superior inhibition |  |  |  |  |  |  |  | 
Cc1ccc(-c2nc3ccccc3n2Cc2ccccc2)o1 [Example 6, 1-Benzyl-2-(5-methyl-2-furyl)benzimidazole] |  |  |  | little effects | 10.9 | little effects | ↓ | ~100 | 100 | ≈ 2.6 μg g^−1 | suppressed
